According to article PMC12693419, “Design, Synthesis, Biological Evaluation, and In Silico Studies of Novel Multitarget Cinnamic Acid Hybrids” (Molecules, 2025):
pIC50: −log10 of the molar value.

Tests used:
[1] = In vitro inhibition of linoleic acid lipid peroxidation (AAPH); conditions: 100 μM; anti-lipid peroxidation
From the text: In the present study, the aim was to evaluate the anti-lipid peroxidation activities of the synthesized compounds 5a–i, 6a–i, 9a–i, and 11 and compare their efficacy to that of Trolox, a well-known antioxidant. Using the water-soluble compound 2,2′-azobis(2-amidinopropane) hydrochloride (AAPH), peroxyl radicals are generated through spontaneous thermal decomposition in vitro. This experimental setup imitated the lipid peroxidation processes occurring in cells due to radical activity allowing the investigation of the effectiveness of the tested compounds under conditions resembling cellular oxidative stress.
An in vitro assay was performed following previously established protocols. The compound 2,2′-Azobis(2-methylpropionamidine) dihydrochloride (AAPH) was used as a controlled source of thermally generated alkylperoxy free radicals. The formation of conjugated diene hydroperoxides through the oxidation of sodium linoleate in an aqueous dispersion at 37 °C was measured by monitoring absorbance at 234 nm. The results were compared with the reference compound, Trolox (93%) (Table 6).

[2] = target: T1, soybean lipoxygenase isoenzyme-1 (SLOX-1) (Glycine max, UniProt P08170); experiment: In vitro inhibition of soybean lipoxygenase; assay type: biochemical; conditions: for pIC50: pH 9.0, read-out: LOX Inh. IC50; for LOX Inh. IC50: pH 9.0
T1 construct: purchased Merck and Sigma-Aldrich
T1 sequence (P08170 1-839): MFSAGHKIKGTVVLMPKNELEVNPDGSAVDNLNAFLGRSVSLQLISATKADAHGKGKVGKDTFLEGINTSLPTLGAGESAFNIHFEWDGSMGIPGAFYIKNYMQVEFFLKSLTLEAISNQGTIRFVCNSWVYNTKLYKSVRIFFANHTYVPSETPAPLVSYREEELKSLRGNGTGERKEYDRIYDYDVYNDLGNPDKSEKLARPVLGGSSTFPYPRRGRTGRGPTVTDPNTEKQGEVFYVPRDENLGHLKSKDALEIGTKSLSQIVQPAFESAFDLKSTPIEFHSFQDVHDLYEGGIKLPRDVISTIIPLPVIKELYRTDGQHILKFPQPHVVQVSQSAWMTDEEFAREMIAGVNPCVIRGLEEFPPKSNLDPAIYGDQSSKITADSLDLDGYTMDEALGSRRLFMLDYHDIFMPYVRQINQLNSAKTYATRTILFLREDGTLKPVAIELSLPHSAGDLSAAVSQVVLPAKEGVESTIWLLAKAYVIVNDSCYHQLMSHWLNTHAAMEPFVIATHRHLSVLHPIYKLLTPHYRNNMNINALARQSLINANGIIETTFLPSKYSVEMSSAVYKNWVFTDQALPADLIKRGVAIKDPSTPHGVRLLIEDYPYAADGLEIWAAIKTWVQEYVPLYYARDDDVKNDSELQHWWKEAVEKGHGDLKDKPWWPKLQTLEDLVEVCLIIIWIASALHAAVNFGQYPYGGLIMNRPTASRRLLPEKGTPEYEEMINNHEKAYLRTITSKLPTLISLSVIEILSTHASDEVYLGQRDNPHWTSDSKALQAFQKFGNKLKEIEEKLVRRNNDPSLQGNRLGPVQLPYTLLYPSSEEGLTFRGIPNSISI
Protocol: In vitro anti-LOX activities were evaluated using soybean lipoxygenase isoenzyme-1 (SLOX-1), a commonly used model for mammalian LOXs.
An in vitro study was conducted following a previously reported method. The tested compounds were dissolved in DMSO (100 µM) and incubated at room temperature with 0.1 mL of sodium linoleate as the substrate and 0.2 mL of soybean lipoxygenase solution in Tris-HCl buffer (pH 9.0).

[3] = target: T2, bovine serum albumin (Bos taurus, UniProt P02769); experiment: In vitro inhibition of albumin denaturation; conditions: heat denaturation, 60 °C 10 min
T2 construct: bovine serum albumin solution (fraction V); purchased Merck and Sigma-Aldrich; host or cells: bovine serum (fraction V)
Protocol: The ability of a compound to inhibit the thermal denaturation of albumin is considered an indicator of anti-inflammatory activity. Heat exposure simulates conditions of cellular stress or inflammation, during which protein and tissue damage occur. Certain substances can protect proteins from denaturation upon heating by stabilizing their structure and preventing aggregation and precipitation.
Inhibition of albumin denaturation was measured following the reported method. In a test tube, 1 mL of bovine serum albumin solution (fraction V, 1% w/v in phosphate buffer, pH 7.4) and 100 μL of the test compound solution were added sequentially. The mixture was incubated at 37 °C for 15 min, followed by heating at 60 °C for 10 min. After cooling to room temperature, the absorbance was measured at 660 nm. DMSO was used as the blank, and the results were compared to acetylsalicylic acid, which served as the reference compound (Table 6).

[4] = target: T3, ovine COX-2 (Ovis aries, UniProt P79208); experiment: In vitro inhibition of ovine cyclooxygenase-2
T3 sequence (P79208 17-603): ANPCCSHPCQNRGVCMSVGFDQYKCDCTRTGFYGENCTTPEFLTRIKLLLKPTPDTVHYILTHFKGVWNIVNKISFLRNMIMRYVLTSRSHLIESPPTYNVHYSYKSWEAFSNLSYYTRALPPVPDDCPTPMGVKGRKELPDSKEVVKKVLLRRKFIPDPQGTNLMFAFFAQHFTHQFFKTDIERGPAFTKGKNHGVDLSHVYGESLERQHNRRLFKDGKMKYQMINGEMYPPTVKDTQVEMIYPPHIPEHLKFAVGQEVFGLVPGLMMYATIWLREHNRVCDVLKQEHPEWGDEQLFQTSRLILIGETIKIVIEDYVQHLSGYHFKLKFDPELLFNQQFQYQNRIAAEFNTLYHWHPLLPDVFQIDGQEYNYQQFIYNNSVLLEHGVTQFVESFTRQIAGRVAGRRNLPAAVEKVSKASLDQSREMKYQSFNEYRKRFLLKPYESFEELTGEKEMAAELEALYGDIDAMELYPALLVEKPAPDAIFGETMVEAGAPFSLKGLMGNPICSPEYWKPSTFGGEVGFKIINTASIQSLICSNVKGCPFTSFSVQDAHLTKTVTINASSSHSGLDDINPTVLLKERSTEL
Protocol: In order to prevent this in the in vitro experiment used for testing COX inhibition activity of the new molecules, a co-substrate like N,N,N′,N′-tetramethyl-p-phenylenediamine (TMPD) is included, as it undergoes co-oxidation by PGG2. The oxidized TMPD has a maximum absorbance at 590 nm. […] To ensure maximum enzyme activity, heme is added to the reaction mixture during the in vitro assay for ovine COX-2 inhibition and COX-1 inhibition [63].
The in vitro COX-2 inhibitory activity was assessed using arachidonic acid (AA) as a substrate and N,N,N′,N′-tetramethyl-p-phenylenediamine (TMPD) as a co-substrate in a Tris-HCl buffer (pH 8.5), following the reported method [89]. To the test tube, 10 µL of the compound dissolved in DMSO was added to a mixture containing 730 µL of Tris-HCl buffer (pH 8.5), 50 µL of heme, 10 µL of COX-2 enzyme, and 100 µL of TMPD. The absorbance was measured at 590 nm. […] A blank determination was conducted as a negative control.

[5] = In vitro determination of NO release with Griess reagent; conditions: 100 μM, L-cysteine, pH 7.4, 37 °C, 60 min
From the text: This assay evaluates the ability of nitrate esters to release nitric oxide (NO). First, sodium nitroprusside (SNP) reacts with the thiol compound, cysteine, which serves as a reducing agent (Scheme 5). The thiol donates electrons, facilitating the breakdown of the nitroprusside complex. Afterwards, the reaction leads to the formation of intermediate complexes, such as nitrosothiol species and the decomposition of these intermediates results in the release of nitric oxide (NO). According to the literature, measurements are conducted both in the presence and absence of the thiol agent, cysteine. No significant difference was observed between the two experimental conditions, and the results were reproducible. Sodium nitroprusside (SNP) was used as the reference compound [65].
The compounds (from a 10 mM stock solution in DMSO, final concentration 100 μM) are added (20 μL) to each test tube. Then, 2 mL of phosphate buffer solution (pH 7.4) is added. L-cysteine, used as the thiol agent, is added to the mixture at a final concentration of 0.5 mM. The solution is incubated at 37 °C for 60 min, after which 1 mL is removed and mixed with 250 μL of Griess reagent (4 g sulfanilamide, 0.2 g N-(1-naphthyl)-ethylenediamine dihydrochloride, and 10 mL of H3PO4 solution, final volume adjusted to 100 mL). The mixture is allowed to stand for 10 min at room temperature, and the absorbance of the produced compound is measured at 540 nm. Sodium nitroprusside (SNP) is used as the reference compound. The results are presented as the release of NO2^− (% NO2^− (mol/mol)) induced by the compounds in the presence of L-cysteine (Table 6).

T2 sequence (P02769 25-607): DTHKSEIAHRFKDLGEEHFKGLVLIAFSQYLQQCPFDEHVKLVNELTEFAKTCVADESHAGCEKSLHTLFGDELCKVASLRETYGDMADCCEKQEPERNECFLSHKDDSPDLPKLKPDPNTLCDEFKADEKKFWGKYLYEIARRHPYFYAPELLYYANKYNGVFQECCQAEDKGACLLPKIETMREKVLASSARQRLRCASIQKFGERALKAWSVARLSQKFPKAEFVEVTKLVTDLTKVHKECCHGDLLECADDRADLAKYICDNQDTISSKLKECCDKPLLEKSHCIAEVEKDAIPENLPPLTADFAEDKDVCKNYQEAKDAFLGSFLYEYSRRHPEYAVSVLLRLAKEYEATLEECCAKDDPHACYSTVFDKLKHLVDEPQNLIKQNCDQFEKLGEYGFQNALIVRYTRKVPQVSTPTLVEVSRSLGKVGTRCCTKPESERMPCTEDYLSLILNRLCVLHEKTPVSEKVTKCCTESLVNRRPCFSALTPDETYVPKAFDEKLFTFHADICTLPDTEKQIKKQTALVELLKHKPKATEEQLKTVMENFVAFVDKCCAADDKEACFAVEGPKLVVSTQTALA

Row | Structure (SMILES) | AAPH Inh. at 100 μΜ [1] | pIC50 [2] | Albumin (inhibition of albumin denaturation) [3] | pIC50 [4] | %NO2^− Release mol/mol at 100 μΜ [5] | COX-2 Inh. IC50 [4] | LOX Inh. IC50 [2]
1 | C/C(=N\O)c1ccc(NC(=O)COC(=O)C=Cc2ccccc2)cc1 [Compound 6a, 2-((4-((E)-1-(Hydroxyimino)ethyl)phenyl)amino)-2-oxoethyl cinnamate] | 50.2% | 4.30 | no | 4.00 | no activity and no |  | 
2 | C/C(=N\O)c1ccc(NC(=O)COC(=O)/C=C/c2cccc3ccccc23)cc1 [Compound 6b, 2-((4-((E)-1-(Hydroxyimino)ethyl)phenyl)amino)-2-oxoethyl (E)-3-(naphthalen-1-yl)acrylate] | 94% | 4.22 | no |  | 1.1% | no | 
3 | C/C(=N\O)c1ccc(NC(=O)COC(=O)/C=C/c2ccco2)cc1 [Compound 6d, 2-((4-((E)-1-(Hydroxyimino)ethyl)phenyl)amino)-2-oxoethyl (E)-3-(furan-2-yl)acrylate] | 54% |  | 10% |  | 0.2% | no | no
4 | C/C(=N\O)c1ccc(NC(=O)COC(=O)/C=C/c2cc3ccccc3s2)cc1 [Compound 6e, 2-((4-((E)-1-(Hydroxyimino)ethyl)phenyl)amino)-2-oxoethyl (E)-3-(benzo[b]thiophen-2-yl)acrylate] | no |  | 63% |  | 1.1% | no | no
5 | C/C(=N\O)c1ccc(NC(=O)COC(=O)/C=C/c2cc3ccccc3o2)cc1 [Compound 6f, 2-((4-((E)-1-(Hydroxyimino)ethyl)phenyl)amino)-2-oxoethyl (E)-3-(benzofuran-2-yl)acrylate] | no | 4.21 | no |  | 0.3% | no | 
6 | C/C(=N\O)c1ccc(NC(=O)COC(=O)/C(=C/c2ccccc2)c2ccccc2)cc1 [Compound 6g, 2-((4-((E)-1-(Hydroxyimino)ethyl)phenyl)amino)-2-oxoethyl (E)-2,3-diphenylacrylate] | 89% | 4.36 | no |  | no activity and no |  | 
7 | C/C(=N\O)c1ccc(NC(=O)COC(=O)/C(=C/c2cccc3ccccc23)c2ccccc2)cc1 [Compound 6h, 2-((4-((E)-1-(Hydroxyimino)ethyl)phenyl)amino)-2-oxoethyl (E)-3-(naphthalen-1-yl)-2-phenylacrylate] | 97.7% | 4.20 | no |  | no activity and no |  | 
8 | O=C(C=Cc1ccccc1)OCc1c(-c2ccccc2)no[n+]1[O-] [Compound 9a, 3-((Cinnamoyloxy)methyl)-4-phenyl-1,2,5-oxadiazole 2-oxide] | 91.6% | 5.46 | no |  | 20% | no | 
9 | O=C(C=Cc1cccc2ccccc12)OCc1c(-c2ccccc2)no[n+]1[O-] [Compound 9b, 3-(((3-(Naphthalen-1-yl)acryloyl)oxy)methyl)-4-phenyl-1,2,5-oxadiazole 2-oxide] | 84% |  | no |  | 1.2% | no | no
10 | O=C(/C=C/c1cccs1)OCc1c(-c2ccccc2)no[n+]1[O-] [Compound 9c, (E)-4-Phenyl-3-(((3-(thiophen-2-yl)acryloyl)oxy)methyl)-1,2,5-oxadiazole 2-oxide] | 73.3% |  | no |  | 1.2% | no | no
11 | O=C(/C=C/c1ccco1)OCc1c(-c2ccccc2)no[n+]1[O-] [Compound 9d, (E)-3-(((3-(Furan-2-yl)acryloyl)oxy)methyl)-4-phenyl-1,2,5-oxadiazole 2-oxide] | 78% | 4.20 | no |  | no | no | 
12 | O=C(/C=C/c1cc2ccccc2o1)OCc1c(-c2ccccc2)no[n+]1[O-] [Compound 9f, (E)-3-(((3-(Benzofuran-2-yl)acryloyl)oxy)methyl)-4-phenyl-1,2,5-oxadiazole 2-oxide] | 97% | 4.15 | no |  | no | no | 
13 | O=C(OCc1c(-c2ccccc2)no[n+]1[O-])/C(=C/c1cccc2ccccc12)c1ccccc1 [Compound 9h, (E)-3-(((3-(Naphthalen-1-yl)-2-phenylacryloyl)oxy)methyl)-4-phenyl-1,2,5-oxadiazole 2-oxide] | 94.5% | 5.00 | no |  | no | no | 
